# Values of other authors, collected in article PMC3780409 (Methods in molecular biology (Clifton, N.J.), 2011).
# Entries after “also recorded” stand apart in the source; their conditions may differ.
# Key:
# PAR1 [1] = conditions: sepsis, SIRS, DIC, mice; cited from earlier work
# endothelial cells = conditions: cited from earlier work
# [2] = system: PAR2, PAR4, CXCR1, CXCR2, S1P1, S1P3, or CCR5 receptors; conditions: recombinantly transfected HEK293 cells; cited from earlier work
# PAR1 [3] = conditions: human platelets, 5 μM for 1 min; cited from earlier work
# [4] = system: thromboxane, ADP, collagen, or GPIb/IX/V receptors; conditions: specificity; cited from earlier work
# PAR1 [5] = conditions: cited from earlier work
# PAR1 [6] = conditions: cited from earlier work; remark: listed apart in the source
# PAR1 [7] = conditions: cited from earlier work; remark: listed apart in the source
# PAR1 [8] = conditions: cited from earlier work; remark: listed apart in the source
substance,measurement,setting,value
N-pal-RCLSSSAVANRS-NH2 [Pepducin P1pal-12],Outcome,PAR1 [1],"Reduced organ damage and inflammatory mediators, inhibited neutrophil migration"
same,"responses to IL8, SDF-1α, S1P, thromboxane, MCP-1, RANTES",endothelial cells,no effect
same,"migration to ligands for PAR2, PAR4, CXCR1, CXCR2, S1P1, S1P3, or CCR5 receptors",[2],no effect
same,aggregation in response to 3 nM thrombin,PAR1 [3],complete blockade
same,decrease in SFLLRN (PAR1 agonist)-induced aggregation,PAR1 [3],75–95%
same,"aggregation of platelets induced by agonists for the thromboxane, ADP, collagen, or GPIb/IX/V receptors",[4],lack of an effect
same,Outcome (thrombin generation),PAR1 [5],Delayed thrombin generation
same,thrombin plus collagen-induced calcium signal,PAR1 [6]; platelets,significantly decreased; also recorded: Decreased collagen-induced calcium signal
same,prothrombinase activity,PAR1 [6]; thrombin plus collagen,decreased the prothrombinase activity to levels induced by collagen alone
same,relaxation induced by TFLLRN or P1pal-19,PAR1 [7]; precontracted rat aortic rings,decreased relaxation
same,Outcome (thrombin-induced relaxation),PAR1 [7]; rat aortic rings,Decreased thrombin-induced relaxation in rat aortic rings
same,p38 MAPK activation,"PAR1 [8]; human platelets, collagen",blocked p38 MAPK activation
same,collagen-induced platelet aggregation,PAR1 [8]; human platelets,Inhibition of collagen-induced platelet aggregation
same,propagation of platelet–platelet thrombi,"PAR1 [8]; human whole blood, arterial flow conditions",significantly reduced
